In general, ΔTm refers to the shift of the melting midpoint relative to a reference. Usually IC50 stands for the concentration needed to halve the response being measured. The term inhibition denotes the change of the read-out against control, counted positive when it falls.

The structures appear in SMILES notation. A value given as a limit tells only on which side of the number the result lay.

Assay [1] has as its target T1, RecAPa (Pseudomonas aeruginosa, UniProt P08280).
T1 construct: made in house; host or cells: E. coli BL21(DE3)
Put plainly: Differential scanning fluorimetry (thermal shift) on RecAPa. The assay is classed as binding, P. aeruginosa. As to conditions: read-out: RecAPa ΔTm compared to the control. The protocol: To elucidate whether A12 binds RecAPa or LexAPa, the two proteins were submitted to a thermal shift assay by DSF, in the presence of different concentrations of A12 (30–1000 μM; Figure A–C). Controls devoid of A12 were included, as well.
Fluorescence of the SyproOrange dye was measured by a StepOne Real-Time PCR System (Applied Biosystems), while increasing the temperature from 25 to 95 °C (0.5 °C/min). Normalized fluorescence intensity curves were compared to observe macroscopic differences in the recorded melting profiles, while derivative curves were analyzed to find exact protein melting temperatures (T m, corresponding to derivative curve minimum). Melting curves were repeated twice, and duplicates were considered coherent if T m differences were lower than 1 °C.
Target sequence in this assay (P08280 2-346): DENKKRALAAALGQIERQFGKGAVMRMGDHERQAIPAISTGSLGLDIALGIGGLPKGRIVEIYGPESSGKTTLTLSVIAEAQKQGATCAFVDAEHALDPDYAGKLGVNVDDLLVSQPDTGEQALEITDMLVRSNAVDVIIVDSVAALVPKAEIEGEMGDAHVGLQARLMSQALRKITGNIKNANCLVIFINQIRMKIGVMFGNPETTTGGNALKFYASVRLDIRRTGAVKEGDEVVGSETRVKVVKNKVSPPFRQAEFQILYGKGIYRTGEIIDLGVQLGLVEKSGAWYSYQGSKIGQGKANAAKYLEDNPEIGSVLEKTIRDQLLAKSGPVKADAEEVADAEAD

For assay [2], the target named is T2, RecAPa*-induced FlAsH-LexAPa CTD autoproteolysis (Pseudomonas aeruginosa, UniProt P37452).
T2 construct: 6His-SUMO (N, cleaved yes); made in house; host or cells: E. coli BL21(DE3)
T2 sequence (P37452 81-204): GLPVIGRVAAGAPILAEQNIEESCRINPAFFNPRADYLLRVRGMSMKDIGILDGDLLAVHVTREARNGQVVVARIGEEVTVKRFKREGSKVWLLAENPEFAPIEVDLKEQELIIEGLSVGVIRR
The assay is described as follows: FP-based RecA*-induced LexA autoproteolysis in vitro assay. The assay is classed as biochemical, P. aeruginosa. The protocol:
A custom-made library of 318 small molecules (MW < 1000 Da) has been screened at two different concentrations (25 μg/mL and 125 μg/mL, corresponding to molar concentrations of 30–170 μM and 150–850 μM, respectively) on the P. aeruginosa SOS system by a previously validated fluorescence polμarization (FP)-based RecA*-induced LexA autoproteolysis in vitro assay. , 1 μM FlAsH-LexAPa ^CTD and 1 μM preactivated RecA*Pa were incubated with the screened chemical fragments for 1 h at 37 °C before measuring FP.
Then, the FP-based LexA autoproteolysis assay was repeated on the two hits, monitoring the full kinetics of LexA cleavage over a 1 h incubation and exploring a wide range of drug concentrations (10–1000 μM).
A custom-made library of 318 chemical fragments (25 mg/mL stock solutions in DMSO), provided by P. Kavaliauskas (Weill Cornell Medicine of Cornell University) was screened in vitro for their ability to inhibit RecAPa*-mediated LexAPa autoproteolysis by a Fluorescence Polarization (FP)-based assay. , Twenty microliter reactions were set up in Nunc 384-Well Black microplates, and final reaction mixtures included 1 μM FlAsH-LexAPa ^CTD, the compounds (5% v/v DMSO in all the samples, including the controls devoid of compounds), and 1 μM RecAPa* (FP Buffer in the negative control; 30 mM Hepes, 150 mM NaCl, pH 7.1). The initial screening was performed with two dilutions of the compounds (25 and 125 μg/mL). The FP signal was measured after a 1 h incubation at 37 °C by an EnVision MultiMode Plate Reader (PerkinElmer) equipped with opportune FP filters and mirrors. To obtain LexAPa ^CTD autoproteolysis percent inhibition, FP data were scaled from 0% (corresponding to the positive control sample) to 100% (negative control).
Compounds displaying an inhibition of at least 50% at the highest concentration and a rather consistent increase in activity at the two tested concentrations were selected as the hits.
The same FP assay was carried out on serial dilutions of selected compounds to determine the dose–response relationship. To evaluate the effect of a reducing environment, 2 mM Tris(2-carboxyethyl)-phosphine (TCEP) was added to the reaction mixtures. The FP signal of FlAsH-LexAPa ^CTD alone was detected for 5 min before adding the compounds. The system was monitored for an additional 5 min in the presence of the tested compounds in order to observe potential aggregation events. Then, RecAPa* was added, and the autoproteolysis reaction was followed for 1 h at 37 °C (1 reading per minute). FlAsH-LexAPa ^CTD autoproteolysis percent inhibition was calculated as mentioned above and plotted as a function of compound concentration. Experimental data fitting was performed with GraphPad Prism 8 to obtain the absolute IC50.

Assay [3] deals with T1, RecAPa. The assay is described as follows: ESI-MS analysis of RecAPa preincubated with A12. The assay is classed as binding, P. aeruginosa. As to conditions: 2 mM A12, 2 h at 25 °C; condensation, Lys285. The protocol: Then, ESI-MS analysis was carried out on both RecAPa and LexAPa alone and preincubated with A12 (referred to as RecAPa-A12 and LexAPa-A12, respectively).
MS analysis was carried out on 5 μL samples of compound A12 (2 mM), of the proteins 6His-LexAPa and 6His-RecAPa (50 μM), and of the same proteins incubated with 2 mM A12 (2 h incubation at 25 °C, 10% v/v DMSO in 100 mM NaHCO3 pH 7.0). Aliquots of the latter samples were treated with 5 mM dithiothreitol (DTT) for 1 h at 25 °C before being buffer-exchanged in 100 mM NaHCO3 at pH 7.0. Samples were analyzed by an electrospray ionization (ESI) mass spectrometer equipped with a Xevo G2-XS ESI-Q-TOF mass spectrometer (Waters Corporation, Milford, Massachusetts, USA). Measurements were carried out at 1.5–1.8 kV capillary voltage and 30–40 V cone voltage.
Tryptic digestion was obtained at a 1:20 trypsin to protein ratio (by weight) after the incubation of the proteins (6His-LexAPa and 6His-RecAPa) with chemical compound A12. The reaction was left at 37 °C overnight and then stopped by freezing at – 20 °C. Proteolytic mixtures were analyzed by LC–MS, using an Agilent AdvanceBio Peptide Map column (2.1 × 150 mm × 2.7 μm; Santa Clara, CA, USA) connected to an Acquity H-Class instrument (Waters Corporation, Milford, Massachusetts, USA). […]
Target sequence in this assay (P08280 whole entry): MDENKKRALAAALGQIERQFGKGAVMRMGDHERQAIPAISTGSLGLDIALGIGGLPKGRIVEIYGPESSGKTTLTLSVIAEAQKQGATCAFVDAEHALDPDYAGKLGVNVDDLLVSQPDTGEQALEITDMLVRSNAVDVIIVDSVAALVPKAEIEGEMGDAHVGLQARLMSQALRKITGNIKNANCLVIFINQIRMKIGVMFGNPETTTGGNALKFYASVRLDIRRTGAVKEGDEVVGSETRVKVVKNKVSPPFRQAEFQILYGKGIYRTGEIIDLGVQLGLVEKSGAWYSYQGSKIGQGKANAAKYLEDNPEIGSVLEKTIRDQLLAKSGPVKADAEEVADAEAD

In the case of `O=C(O)CCNc1ccccc1S` [A12, 3-(2-sulfanylanilino)propanoic acid], the ΔTm at 1000 µM on RecAPa [1] is 10 °C. For the same compound, the IC50 in assay [2] (1 μM FlAsH-LexAPa CTD, 1 μM RecAPa*, 1 h at 37 °C, read-out: IC50 on RecA*Pa-induced LexAPa autoproteolysis (FP assay)) was 295 ± 12 µM. For the same compound, in assay [2] (2 mM TCEP), the “A12 inhibitory activity under reducing conditions compared to nonreducing” value is “significantly diminished”. For the same compound, the inhibition at 125 µg/mL in assay [2] (compound at 125 μg/mL, 1 h at 37 °C, read-out: LexA autoproteolysis inhibition in initial library screening) was more than 50%. Besides, at RecAPa [3], the “Mass difference of A12-modified RecAPa versus unmodified protein” value was determined as 179 Da.

For the origin of these results see article PMC12706794, “Identification and Characterization of a Small-Molecule Inhibitor of the Pseudomonas aeruginosa SOS Response” (ACS Infectious Diseases, 2025).
